Measurements: PubChem BioAssay AID2060362 (Molecular Pharmacology Branch, DTP, NCI, 2025)

System: 128128-338-R-J1-PDC spheroids, viability % test/control
Test: Anticancer human tumor 128128-338-R-J1-PDC patient-derived melanoma cell line growth inhibition [TAK]
Conditions: spheroids with HUVEC and MSC; for IC50: curve of first compound; for viability, T/C: stronger effect = lower value
How it was run: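 Spheroids of 60% malignant cells, 25% HUVEC and 15% hMSC were exposed to targeted agents combined with TAK-243 or ipatasertib. Concentrations started at or near clinical Cmax (10 microM if unknown) and descended in half-log steps.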

[1] = second compound 0.3 µM, first compound 0.0316 µM
[2] = second compound 0.3 µM, first compound 0.1 µM
[3] = second compound 0.3 µM, first compound 0.316 µM
[4] = second compound 0.3 µM, first compound 1 µM
[5] = second compound 0.949 µM, first compound 0.0316 µM
[6] = second compound 0.949 µM, first compound 0.1 µM
[7] = second compound 0.949 µM, first compound 0.316 µM
[8] = second compound 0.949 µM, first compound 1 µM
[9] = second compound 3 µM, first compound 0.0316 µM
[10] = second compound 3 µM, first compound 0.1 µM
[11] = second compound 3 µM, first compound 0.316 µM
[12] = second compound 3 µM, first compound 1 µM
[13] = second compound 9.49 µM, first compound 0.0316 µM
[14] = second compound 9.49 µM, first compound 0.1 µM
[15] = second compound 9.49 µM, first compound 0.316 µM
[16] = second compound 9.49 µM, first compound 1 µM
[17] = second compound 30 µM, first compound 0.0316 µM
[18] = second compound 30 µM, first compound 0.1 µM
[19] = second compound 30 µM, first compound 0.316 µM
[20] = second compound 30 µM, first compound 1 µM
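Throughout, for viability, T/C: 100% = DMSO vehicle wells.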

In the case of `COc1c(OCCCN2CCOCC2)ccc2c3n(c(=NC(=O)c4cnc(N)nc4)nc12)CCN3` + CC(C)NCC(C(=O)N1CCN(c2ncnc3c2C(C)CC3O)CC1)c1ccc(Cl)cc1, the IC50 (second compound 0.3 µM) is reported as 160 nM, the IC50 (second compound 0.949 µM) is reported as 154 nM and the IC50 (second compound 3 µM) is reported as 92.5 nM. The IC50 (second compound 9.49 µM) was 47.6 nM, the IC50 (second compound 30 µM) was less than 3.16 nM and the viability, T/C (second compound 0.3 µM, first compound 0.00316 µM) was 99.3%. For the same compound, the viability, T/C (second compound 0.3 µM, first compound 0.01 µM) was 103%, the viability, T/C [1] was 85.7% and the viability, T/C [2] was 71.9%. It also gave a viability, T/C [3] of 19.8%, a viability, T/C [4] of 10.2% and a viability, T/C (second compound 0.949 µM, first compound 0.00316 µM) of 93.4%. It also gave a viability, T/C (second compound 0.949 µM, first compound 0.01 µM) of 107%, a viability, T/C [5] of 90.3% and a viability, T/C [6] of 68.8%. The viability, T/C [7] was 19.5%, the viability, T/C [8] was 6.65% and the viability, T/C (second compound 3 µM, first compound 0.00316 µM) was 90.8%. For the same compound, the viability, T/C (second compound 3 µM, first compound 0.01 µM) was 88.3%, the viability, T/C [9] was 77.7% and the viability, T/C [10] was 47.3%. The viability, T/C [11] was 19.3%, the viability, T/C [12] was 6.49% and the viability, T/C (second compound 9.49 µM, first compound 0.00316 µM) was 62%. It also gave a viability, T/C (second compound 9.49 µM, first compound 0.01 µM) of 74.2%, a viability, T/C [13] of 57.5% and a viability, T/C [14] of 33.3%. It also gave a viability, T/C [15] of 11.9%, a viability, T/C [16] of 8.21% and a viability, T/C (second compound 30 µM, first compound 0.00316 µM) of 19.5%. For the same compound, the viability, T/C (second compound 30 µM, first compound 0.01 µM) was 19.5%, the viability, T/C [17] was 13.6% and the viability, T/C [18] was 8.31%. The viability, T/C [19] was 1.28% and the viability, T/C [20] was 0.56%.

In the case of `Cc1nc(NC(=O)N2CCCC2C(N)=O)sc1-c1ccnc(C(C)(C)C(F)(F)F)c1` (stereo not given) + CC(C)NCC(C(=O)N1CCN(c2ncnc3c2C(C)CC3O)CC1)c1ccc(Cl)cc1, the IC50 (second compound 0.3 µM) is reported as greater than 10000 nM, the IC50 (second compound 0.949 µM) is reported as greater than 10000 nM and the IC50 (second compound 3 µM) is reported as greater than 10000 nM. It also gave an IC50 (second compound 9.49 µM) of 3460 nM, an IC50 (second compound 30 µM) of less than 31.6 nM and a viability, T/C [1] of 102%. For the same compound, the viability, T/C [2] was 105%, the viability, T/C [3] was 102% and the viability, T/C [4] was 105%. It also gave a viability, T/C (second compound 0.3 µM, first compound 3.16 µM) of 105%, a viability, T/C (second compound 0.3 µM, first compound 10 µM) of 73.2% and a viability, T/C [5] of 89%. For the same compound, the viability, T/C [6] was 103%, the viability, T/C [7] was 100% and the viability, T/C [8] was 91.7%. It also gave a viability, T/C (second compound 0.949 µM, first compound 3.16 µM) of 82.7%, a viability, T/C (second compound 0.949 µM, first compound 10 µM) of 81.8% and a viability, T/C [9] of 95.8%. For the same compound, the viability, T/C [10] was 88.8%, the viability, T/C [11] was 90.7% and the viability, T/C [12] was 84.7%. The viability, T/C (second compound 3 µM, first compound 3.16 µM) was 80%, the viability, T/C (second compound 3 µM, first compound 10 µM) was 54.5% and the viability, T/C [13] was 69.5%. It also gave a viability, T/C [14] of 70.2%, a viability, T/C [15] of 68.5% and a viability, T/C [16] of 64.8%. It also gave a viability, T/C (second compound 9.49 µM, first compound 3.16 µM) of 51.8%, a viability, T/C (second compound 9.49 µM, first compound 10 µM) of 23.7% and a viability, T/C [17] of 24.1%. For the same compound, the viability, T/C [18] was 21.2%, the viability, T/C [19] was 22.1% and the viability, T/C [20] was 16.6%. The viability, T/C (second compound 30 µM, first compound 3.16 µM) was 15% and the viability, T/C (second compound 30 µM, first compound 10 µM) was 3.6%.
